# Earlier results in patent publication US6559165B1, “Methods for treating bulimia using optically pure (−) norcisapride” (priority 1998, dated 2003).
# What was measured:
# [1] = co-administration with ketoconazole
smiles,measurement,setting,value
"COc1cc(N)c(Cl)cc1C(=O)N[C@H]1CCN(CCCOc2ccc(F)cc2)C[C@H]1OC (racemic) [(±) Cisapride, cis-4-amino-5-chloro-N-[1-[3-(4-fluorophenoxy)propyl]-3-methoxy-4-piperidinyl]-2-methoxybenzamide]",increase of steady-state plasma levels,[1],8 fold
same,portion of dose metabolized,"humans, oxidative N-dealkylation or aromatic hydroxylation",More than 90%
same,bioavailability,"oral administration to humans, rapid first-pass metabolism in the liver",40-50%
